Measurements taken from the NIST ThermoML archive (doi:10.1021/je060271a).
“And” between values parts separate entries of the source, which are not always exact repeats. Equal entries are not always repeated.

Conditions: Liquid, Vibrating tube method

CCCCCCC(=O)OCC(COC(=O)CCCCCC)(COC(=O)CCCCCC)COC(=O)CCCCCC [pentaerythritol tetraheptanoate]
Conditions | mass density
303.15 K, 31425 kPa | 989 kg/m3
303.15 K, 31458 kPa | 989.1 kg/m3
303.15 K, 31487 kPa | 989.1 kg/m3
303.15 K, 31515 kPa | 989 kg/m3
303.15 K, 31543 kPa | 989.1 kg/m3
303.15 K, 31577 kPa | 989.1 kg/m3
303.15 K, 31605 kPa | 989 kg/m3
303.15 K, 31639 kPa | 989.1 kg/m3
303.15 K, 31667 kPa | 989.1 kg/m3
303.15 K, 31696 kPa | 989.1 kg/m3
303.15 K, 31724 kPa | 989.2 kg/m3
303.15 K, 31759 kPa | 989.2 kg/m3
303.15 K, 31788 kPa | 989.2 kg/m3
303.15 K, 31817 kPa | 989.3 kg/m3
303.15 K, 31846 kPa | 989.3 kg/m3
303.15 K, 31880 kPa | 989.3 kg/m3
303.15 K, 31909 kPa | 989.3 kg/m3
303.15 K, 31938 kPa | 989.3 kg/m3
303.15 K, 31973 kPa | 989.4 kg/m3
303.15 K, 32002 kPa | 989.3 kg/m3
303.15 K, 32036 kPa | 989.4 kg/m3
303.15 K, 32065 kPa | 989.4 kg/m3
303.15 K, 32094 kPa | 989.3 kg/m3
303.15 K, 32128 kPa | 989.5 kg/m3
303.15 K, 32158 kPa | 989.4 kg/m3
303.15 K, 32186 kPa | 989.4 kg/m3
303.15 K, 32221 kPa | 989.4 kg/m3
303.15 K, 32250 kPa | 989.5 kg/m3
303.15 K, 32280 kPa | 989.5 kg/m3
303.15 K, 32316 kPa | 989.5 kg/m3
303.15 K, 32345 kPa | 989.5 kg/m3
303.15 K, 32375 kPa | 989.4 kg/m3
303.15 K, 32405 kPa | 989.5 kg/m3
303.15 K, 32440 kPa | 989.6 kg/m3
303.15 K, 32470 kPa | 989.6 kg/m3
303.15 K, 32500 kPa | 989.5 kg/m3
303.15 K, 32536 kPa | 989.7 kg/m3
303.15 K, 32566 kPa | 989.6 kg/m3
303.15 K, 32602 kPa | 989.7 kg/m3
303.15 K, 32632 kPa | 989.6 kg/m3
303.15 K, 32661 kPa | 989.6 kg/m3
303.15 K, 32691 kPa | 989.7 kg/m3
303.15 K, 32727 kPa | 989.7 kg/m3
303.15 K, 32757 kPa | 989.6 kg/m3
303.15 K, 32787 kPa | 989.8 kg/m3
303.15 K, 32824 kPa | 989.8 kg/m3
303.15 K, 32854 kPa | 989.8 kg/m3
303.15 K, 32890 kPa | 989.8 kg/m3
303.15 K, 32920 kPa | 989.7 kg/m3
303.15 K, 32951 kPa | 989.7 kg/m3
303.15 K, 32984 kPa | 989.9 kg/m3
303.15 K, 33014 kPa | 989.7 kg/m3
303.15 K, 33051 kPa | 989.9 kg/m3
303.15 K, 33082 kPa | 990 kg/m3
303.15 K, 33112 kPa | 989.9 kg/m3
303.15 K, 33149 kPa | 990 kg/m3
303.15 K, 33180 kPa | 990 kg/m3
303.15 K, 33217 kPa | 990 kg/m3
303.15 K, 33248 kPa | 989.9 kg/m3
303.15 K, 33279 kPa | 990.1 kg/m3
303.15 K, 33317 kPa | 990 kg/m3
303.15 K, 33348 kPa | 990 kg/m3
303.15 K, 33381 kPa | 990 kg/m3
303.15 K, 33413 kPa | 990 kg/m3
303.15 K, 33450 kPa | 990.1 kg/m3
303.15 K, 33482 kPa | 990 kg/m3
303.15 K, 33514 kPa | 990.2 kg/m3
303.15 K, 33546 kPa | 990.1 kg/m3
303.15 K, 33584 kPa | 990.1 kg/m3
303.15 K, 33616 kPa | 990.2 kg/m3
303.15 K, 33648 kPa | 990.2 kg/m3
303.15 K, 33686 kPa | 990.2 kg/m3
303.15 K, 33718 kPa | 990.2 kg/m3
303.15 K, 33756 kPa | 990.2 kg/m3
303.15 K, 33788 kPa | 990.2 kg/m3
303.15 K, 33820 kPa | 990.3 kg/m3
303.15 K, 33852 kPa | 990.3 kg/m3
303.15 K, 33890 kPa | 990.4 kg/m3
303.15 K, 33921 kPa | 990.4 kg/m3
303.15 K, 33952 kPa | 990.5 kg/m3
303.15 K, 33993 kPa | 990.4 kg/m3
303.15 K, 34038 kPa | 990.4 kg/m3
303.15 K, 34093 kPa | 990.4 kg/m3
303.15 K, 34123 kPa | 990.4 kg/m3
303.15 K, 34208 kPa | 990.5 kg/m3
303.15 K, 34249 kPa | 990.5 kg/m3
303.15 K, 34280 kPa | 990.6 kg/m3
303.15 K, 34305 kPa | 990.5 kg/m3
303.15 K, 34336 kPa | 990.6 kg/m3
303.15 K, 34363 kPa | 990.5 kg/m3
303.15 K, 34390 kPa | 990.7 kg/m3
303.15 K, 34423 kPa | 990.6 kg/m3
303.15 K, 34452 kPa | 990.7 kg/m3
303.15 K, 34482 kPa | 990.6 kg/m3
303.15 K, 34512 kPa | 990.7 kg/m3
303.15 K, 34545 kPa | 990.6 kg/m3
303.15 K, 34553 kPa | 990.8 kg/m3
303.15 K, 34554 kPa | 990.7 kg/m3
303.15 K, 34556 kPa | 990.7 kg/m3
323.14 K, 99.4 kPa | 955.6 kg/m3 and 955.7 kg/m3
323.14 K, 99.5 kPa | 955.7 kg/m3 and 955.6 kg/m3
323.14 K, 99.7 kPa | 955.7 kg/m3 [middle of 4 runs]
323.14 K, 99.9 kPa | 955.7 kg/m3 [middle of 4 runs]
323.14 K, 100 kPa | 955.7 kg/m3 and 955.8 kg/m3 and 955.6 kg/m3
323.14 K, 100.1 kPa | 955.7 kg/m3
323.14 K, 100.2 kPa | 955.6 kg/m3 and 955.7 kg/m3
323.14 K, 100.4 kPa | 955.7 kg/m3
323.14 K, 101.1 kPa | 955.6 kg/m3
323.14 K, 135.4 kPa | 955.7 kg/m3
323.14 K, 135.5 kPa | 955.7 kg/m3
323.14 K, 137.4 kPa | 955.7 kg/m3
